Laboratory results: the supplement of paper PMC10331698
± gives the standard deviation of the averaged measurements.

How the values were obtained:
Experiment in all cases: level (log10 ratio to DMSO vehicle control); higher = higher biomarker level / cell amount than vehicle control
[1] = compound: C=CC(=O)OCC(F)(F)C(F)(F)C(F)(F)COC(=O)C=C [1H,1H,5H,5H-Perfluoro-1,5-pentanediol diacrylate]; conditions: 6700 nM; in DMSO
Procedure: (§1)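 BioMAP Diversity Plus panel of 12 human primary cell co-culture systems (3C, 4H, LPS, SAg, BT, BF4T, BE3C, CASM3C, HDF3CGF, KF3CT, MyoF, Mphg). Compounds were added 1 h before stimulation and left for 24 h (MyoF 48 h; BT 72 h for soluble read-outs or 6 d for IgG). Biomarkers were read by ELISA, cytotoxicity by SRB, PBMC viability and proliferation by Alamar Blue. Each well value was divided by the mean of 8 DMSO control wells on the same plate and log10 transformed; duplicate blinded samples were tested at 4 concentrations.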

Nonafluoropentanamide = compound: NC(=O)C(F)(F)C(F)(F)C(F)(F)C(F)(F)F [Nonafluoropentanamide]; conditions: in DMSO
Procedure: as §1

Octafluoroadipamide = compound: NC(=O)C(F)(F)C(F)(F)C(F)(F)C(F)(F)C(N)=O [Octafluoroadipamide]; conditions: in DMSO
Procedure: as §1

[2] = compound: FC(F)(F)C(F)(F)C(F)(F)CC1CO1 [1H,1H-Heptafluorobutyl epoxide]; conditions: in DMSO
Procedure: as §1

[3] = compound: COC(=O)C(F)(F)C(F)(F)OC(F)(C(F)(F)F)C(F)(F)OC(F)=C(F)F [Methyl perfluoro(3-(1-ethenyloxypropan-2-yloxy)propanoate)]; conditions: in DMSO
Procedure: as §1

[4] = compound: C=C(C)C(=O)OCCC(F)(F)C(F)(F)C(F)(F)C(F)(F)C(F)(F)C(F)(F)F [6:2 Fluorotelomer methacrylate]; conditions: in DMSO
Procedure: as §1

[5] = compound: FC(F)(F)C(F)(F)C(F)(F)C(F)(F)C(F)(F)C(F)(F)CC1CO1 [3-(Perfluorohexyl)-1,2-epoxypropane]; conditions: in DMSO
Procedure: as §1

[6] = compound: NS(=O)(=O)C(F)(F)C(F)(F)C(F)(F)C(F)(F)C(F)(F)C(F)(F)F [Perfluorohexanesulfonamide]; conditions: in DMSO
Procedure: as §1

[7] = compound: NC(=O)C(F)(F)C(F)(F)C(F)(F)C(F)F; conditions: in DMSO
Procedure: as §1

[8] = compound: O=S(=O)(O)CCC(F)(F)C(F)(F)C(F)(F)C(F)(F)C(F)(F)C(F)(F)F [6:2 Fluorotelomer sulfonic acid]; conditions: in DMSO
Procedure: as §1

[9] = compound: O=S(=O)(O)C(F)(F)C(F)(F)C(F)(F)C(F)(F)C(F)(F)C(F)(F)C(F)(F)C(F)(F)C(F)(F)C(F)(F)F [Sodium perfluorodecanesulfonate]; conditions: in DMSO
Procedure: as §1

[10] = compound: FC(F)(F)C(F)(F)CNCC(F)(F)C(F)(F)F [Bis(1H,1H-perfluoropropyl)amine]; conditions: in DMSO
Procedure: as §1

Heptafluorobutyl iodide = compound: FC(F)(F)C(F)(F)C(F)(F)CI [Heptafluorobutyl iodide]; conditions: in DMSO
Procedure: as §1

[11] = compound: O=S(=O)(Cl)C(F)(F)C(F)(F)C(F)(F)C(F)(F)C(F)(F)C(F)(F)C(F)(F)C(F)(F)F [Perfluoro-1-octanesulfonyl chloride]; conditions: in DMSO
Procedure: as §1

[12] = compound: O=C(O)C(F)(F)C(F)(F)C(F)(F)C(F)(F)C(F)(F)C(F)(F)C(F)(F)C(F)(F)C(F)(F)C(F)F [11-H-Perfluoroundecanoic acid]; conditions: in DMSO
Procedure: as §1

[13] = compound: O=C(O)C=CC(F)(C(F)(F)F)C(F)(F)F [3-(Perfluoroisopropyl)-2-propenoic acid]; conditions: in DMSO
Procedure: as §1

Hexafluoroamylene glycol = compound: OCC(F)(F)C(F)(F)C(F)(F)CO [Hexafluoroamylene glycol]; conditions: in DMSO
Procedure: as §1

[14] = compound: O=S(=O)(F)C(F)(F)C(F)(F)C(F)(F)C(F)(F)C(F)(F)C(F)(F)C(F)(F)C(F)(F)F [Perfluorooctanesulfonyl fluoride]; conditions: in DMSO
Procedure: as §1

[15] = compound: FC(F)(F)C(F)(F)C(F)(F)C(F)(F)C(F)(F)C(F)(F)C(F)(F)I [1-Iodopentadecafluoroheptane]; conditions: in DMSO
Procedure: as §1

SAg:CXCL8/IL-8
level (log10) [1]: -0.259 ± 0.13
level (log10) (Nonafluoropentanamide; 6700 nM): -0.0285 ± 0.039
level (log10) (Nonafluoropentanamide; 20000 nM): -0.027 ± 0.02
level (log10) (Nonafluoropentanamide; 60000 nM): -0.0305 ± 0.076
level (log10) (Octafluoroadipamide; 6700 nM): -0.001 ± 0.04
level (log10) (Octafluoroadipamide; 20000 nM): 0.0075 ± 0.015
level (log10) (Octafluoroadipamide; 60000 nM): 0.02 ± 0.0014
level (log10) ([2]; 6700 nM): -0.012 ± 0.05
level (log10) ([2]; 20000 nM): -0.011 ± 0.021
level (log10) ([2]; 60000 nM): 0.005 ± 0.027
level (log10) ([3]; 6700 nM): -0.0155 ± 0.026
level (log10) ([3]; 20000 nM): 0.055 ± 0.15
level (log10) ([4]; 6700 nM): 0.0095 ± 0.005
level (log10) ([4]; 20000 nM): -0.0165 ± 0.0021
level (log10) ([4]; 60000 nM): 0.044 ± 0.011
level (log10) ([5]; 6700 nM): -0.0135 ± 0.021
level (log10) ([5]; 20000 nM): -0.029 ± 0.013
level (log10) ([5]; 60000 nM): 0.0075 ± 0.026
level (log10) ([6]; 6700 nM): -0.0225 ± 0.021
level (log10) ([6]; 20000 nM): -0.088 ± 0.0099
level (log10) ([6]; 60000 nM): -0.237 ± 0.088
level (log10) ([7]; 6700 nM): -0.0055 ± 0.037
level (log10) ([7]; 20000 nM): 0.0075 ± 0.015
level (log10) ([7]; 60000 nM): 0.0055 ± 0.018
level (log10) ([8]; 6700 nM): -0.012 ± 0.025
level (log10) ([8]; 20000 nM): 0.0325 ± 0.039
level (log10) ([8]; 60000 nM): 0.064 ± 0.03
level (log10) ([9]; 1500 nM): 0.0165 ± 0.025
level (log10) ([9]; 4400 nM): -0.0175 ± 0.016
level (log10) ([9]; 13000 nM): 0.06 ± 0.0042
level (log10) ([9]; 40000 nM): 0.126 ± 0.019
level (log10) ([10]; 6700 nM): 0.0265 ± 0.059
level (log10) ([10]; 20000 nM): -0.0085 ± 0.023
level (log10) ([10]; 60000 nM): 0.0095 ± 0.053
level (log10) (Heptafluorobutyl iodide; 6700 nM): -0.053 ± 0.04
level (log10) (Heptafluorobutyl iodide; 20000 nM): -0.0345 ± 0.019
level (log10) (Heptafluorobutyl iodide; 60000 nM): -0.02 ± 0.072
level (log10) ([11]; 6700 nM): -0.011 ± 0.011
level (log10) ([11]; 20000 nM): 0.012 ± 0.0099
level (log10) ([11]; 60000 nM): 0.093 ± 0.016
level (log10) ([12]; 6700 nM): -0.0115 ± 0.019
level (log10) ([12]; 20000 nM): -0.0115 ± 0.05
level (log10) ([13]; 6700 nM): -0.0185 ± 0.005
level (log10) ([13]; 20000 nM): -0.0015 ± 0.033
level (log10) ([13]; 60000 nM): 0.009 ± 0.028
level (log10) (Hexafluoroamylene glycol; 6700 nM): -0.0285 ± 0.073
level (log10) (Hexafluoroamylene glycol; 20000 nM): -0.0175 ± 0.0092
level (log10) (Hexafluoroamylene glycol; 60000 nM): 0.052 ± 0.035
level (log10) ([14]; 6700 nM): 0.039 ± 0.1
level (log10) ([14]; 20000 nM): -0.012 ± 0.025
level (log10) ([14]; 60000 nM): 0.012 ± 0.058
level (log10) ([15]; 6700 nM): -0.034 ± 0.035
level (log10) ([15]; 20000 nM): 0.0055 ± 0.073
